Test results: ChEMBL document CHEMBL3769388, “Optimization of a Dicarboxylic Series for in Vivo Inhibition of Citrate Transport by the Solute Carrier 13 (SLC13) Family” (J Med Chem, 2016)
Calls of active or inactive are those of the source. The calls are words filed in the database; no cut-off is given here.

What was measured:
[1] = biological target: High affinity choline transporter 1 (Homo sapiens) (UniProt Q9GZV3); assay: Inhibition of choline transporter 1 (unknown origin)
[2] = biological target: ATP-citrate synthase (Homo sapiens) (UniProt P53396); assay: Inhibition of ACL (unknown origin) upto 30 uM
[3] = biological target: Sodium-dependent phosphate transport protein 1 (Homo sapiens) (UniProt Q14916); assay: Inhibition of NaPiA1 (unknown origin)
[4] = AUC(0 to t) in Wistar Han rat at 5 mg/kg, po by LC-MS/MS analysis; format: ADME, organism-based; details: in vivo
[5] = biological target: Angiotensin-converting enzyme (Homo sapiens) (UniProt P12821); assay: Inhibition of ACE1 (unknown origin)
Bile salt export pump = Bile salt export pump (Homo sapiens, UniProt O95342); assay: Inhibition of ABCB11 (unknown origin)
[6] = biological target: Histamine H3 receptor (Homo sapiens) (UniProt Q9Y5N1); assay: Inhibition of H3 (unknown origin)
[7] = biological target: Histamine H2 receptor (Homo sapiens) (UniProt P25021); assay: Inhibition of H2 (unknown origin)
Mus musculus [8] = assay: Decrease in fasting glucose levels in DIO C57/B6 mouse model in basal portion at 44 mg/kg/hr for 90 mins; format: functional, organism-based
Rattus norvegicus [9] = assay: Decrease in [14C]citrate uptake in iv dosed Wistar Han rat testis measured after 185 to 200 mins by scintillation counting method; format: functional, organism-based
[10] = biological target: Peroxisome proliferator-activated receptor gamma (Homo sapiens) (UniProt P37231); assay: Inhibition of PPAR gamma (unknown origin)
[11] = Total plasma clearance in Wistar Han rat at 1 mg/kg, iv by LC-MS/MS analysis; format: ADME, organism-based
[12] = Passive permeability in MDCK cells; format: ADME, cell-based, Canis lupus familiaris; details: dog
[13] = biological target: Acetylcholinesterase (Homo sapiens) (UniProt P22303); assay: Inhibition of ACHE (unknown origin)
[14] = biological target: Neuronal acetylcholine receptor; alpha4/beta2 (Homo sapiens) (UniProt P17787+P43681); assay: Inhibition of alpha-4/beta-2 (unknown origin); format: protein-complex assay
[15] = biological target: Prostaglandin G/H synthase 2 (Homo sapiens) (UniProt P35354); assay: Inhibition of cyclooxygenase 2 (unknown origin)
[16] = biological target: Sodium-dependent serotonin transporter (Homo sapiens) (UniProt P31645); assay: Inhibition of 5HTT (unknown origin)
Chain of Sodium-dependent serotonin transporter (Homo sapiens) (P31645 whole entry, looked up): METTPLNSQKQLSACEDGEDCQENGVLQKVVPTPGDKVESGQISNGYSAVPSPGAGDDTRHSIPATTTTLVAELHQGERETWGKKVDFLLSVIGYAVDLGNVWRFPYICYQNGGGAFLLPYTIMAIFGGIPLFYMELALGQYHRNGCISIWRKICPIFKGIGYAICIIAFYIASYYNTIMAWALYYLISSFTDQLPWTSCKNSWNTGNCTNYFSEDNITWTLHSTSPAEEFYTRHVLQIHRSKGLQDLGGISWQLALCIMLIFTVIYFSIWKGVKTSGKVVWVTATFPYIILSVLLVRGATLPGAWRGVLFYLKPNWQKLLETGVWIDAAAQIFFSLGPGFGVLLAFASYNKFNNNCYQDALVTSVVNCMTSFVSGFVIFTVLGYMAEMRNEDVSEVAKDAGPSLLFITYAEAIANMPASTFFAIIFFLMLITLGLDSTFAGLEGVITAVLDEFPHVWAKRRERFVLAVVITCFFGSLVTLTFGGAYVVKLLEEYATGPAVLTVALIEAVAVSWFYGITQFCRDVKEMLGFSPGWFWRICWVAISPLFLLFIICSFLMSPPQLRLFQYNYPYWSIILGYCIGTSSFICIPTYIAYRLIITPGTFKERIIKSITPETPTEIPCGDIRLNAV

[17] = biological target: Na(+)/citrate cotransporter (Homo sapiens, UniProt Q86YT5); assay: Inhibition of NaCT in human hepatocytes assessed as [14C]-citrate uptake after 30 mins by scintillation counting method; format: cell-based, Hepatocyte
Rattus norvegicus [18] = species: Rattus norvegicus; assay: Increase in […][13C]-citrate levels in rat liver measured over 140 to 150 mins by UPLC-MS/MS analysis; format: functional, organism-based
[19] = biological target: D(1A) dopamine receptor (Homo sapiens) (UniProt P21728); assay: Inhibition of D1 (unknown origin)
Chain of D(1A) dopamine receptor (Homo sapiens) (P21728 whole entry): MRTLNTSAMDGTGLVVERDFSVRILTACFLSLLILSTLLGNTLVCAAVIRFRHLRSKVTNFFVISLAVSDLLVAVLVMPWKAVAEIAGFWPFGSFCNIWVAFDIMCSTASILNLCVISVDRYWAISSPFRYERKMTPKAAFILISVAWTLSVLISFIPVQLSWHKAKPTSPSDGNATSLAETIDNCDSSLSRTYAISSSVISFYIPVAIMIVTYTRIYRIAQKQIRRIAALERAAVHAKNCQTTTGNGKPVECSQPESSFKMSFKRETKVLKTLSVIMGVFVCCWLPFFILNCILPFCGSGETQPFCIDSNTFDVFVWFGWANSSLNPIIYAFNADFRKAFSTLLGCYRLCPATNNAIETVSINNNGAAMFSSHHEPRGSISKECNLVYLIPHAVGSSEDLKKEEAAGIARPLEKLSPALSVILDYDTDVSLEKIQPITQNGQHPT

[20] = Clearance in human hepatocytes assessed per 10^6 cells; format: ADME, cell-based, Hepatocyte; details: read-out: CLH
[21] = biological target: Sodium-dependent noradrenaline transporter (Homo sapiens) (UniProt P23975); assay: Inhibition of NAT (unknown origin)
Cytochrome P450 2C8 = Cytochrome P450 2C8 (Homo sapiens, UniProt P10632); assay: Inhibition of CYP2C8 (unknown origin); format: ADME
Chain of Cytochrome P450 2C8 (P10632 whole entry): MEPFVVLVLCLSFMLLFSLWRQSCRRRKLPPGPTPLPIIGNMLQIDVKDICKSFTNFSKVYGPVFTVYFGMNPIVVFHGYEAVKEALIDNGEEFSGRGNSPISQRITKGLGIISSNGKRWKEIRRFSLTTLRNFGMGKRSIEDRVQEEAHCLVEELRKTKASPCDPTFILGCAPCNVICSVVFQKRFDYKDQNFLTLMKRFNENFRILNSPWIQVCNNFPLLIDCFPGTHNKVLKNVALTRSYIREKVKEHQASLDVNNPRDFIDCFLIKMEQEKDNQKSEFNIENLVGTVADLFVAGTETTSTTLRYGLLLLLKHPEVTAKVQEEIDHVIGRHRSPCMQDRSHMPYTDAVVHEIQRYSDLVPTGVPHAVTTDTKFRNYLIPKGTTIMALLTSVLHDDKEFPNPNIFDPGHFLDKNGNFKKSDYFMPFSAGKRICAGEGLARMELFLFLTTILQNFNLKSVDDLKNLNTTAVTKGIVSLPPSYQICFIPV

[22] = biological target: Gamma-aminobutyric acid receptor subunit alpha-1 (Homo sapiens) (UniProt P14867); assay: Inhibition of GABRA1 (unknown origin)
Cytochrome P450 2C9 = Cytochrome P450 2C9 (Homo sapiens, UniProt P11712); assay: Inhibition of CYP2C9 (unknown origin); format: ADME
[23] = biological target: T1, Solute carrier family 13 member 2 (Homo sapiens, UniProt Q13183); assay: Inhibition of NaDC1 (unknown origin) expressed in HEK293 cells assessed as inhibition of [14C]citrate uptake by microbeta plate reader analysis; format: cell-based
T1 sequence (Q13183 whole entry): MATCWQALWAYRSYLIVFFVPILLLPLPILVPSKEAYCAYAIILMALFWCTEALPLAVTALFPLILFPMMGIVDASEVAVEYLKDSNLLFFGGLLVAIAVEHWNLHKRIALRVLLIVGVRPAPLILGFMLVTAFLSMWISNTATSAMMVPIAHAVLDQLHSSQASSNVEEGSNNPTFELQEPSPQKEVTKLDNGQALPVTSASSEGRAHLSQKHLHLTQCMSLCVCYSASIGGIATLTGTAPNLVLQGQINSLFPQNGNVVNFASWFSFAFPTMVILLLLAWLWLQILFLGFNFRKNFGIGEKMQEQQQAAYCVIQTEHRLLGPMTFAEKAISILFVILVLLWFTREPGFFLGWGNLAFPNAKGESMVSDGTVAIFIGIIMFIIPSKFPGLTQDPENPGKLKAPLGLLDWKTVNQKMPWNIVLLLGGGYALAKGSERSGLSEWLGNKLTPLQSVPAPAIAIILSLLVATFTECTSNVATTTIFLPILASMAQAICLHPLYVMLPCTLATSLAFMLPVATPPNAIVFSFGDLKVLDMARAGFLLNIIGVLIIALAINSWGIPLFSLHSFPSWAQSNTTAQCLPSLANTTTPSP

[24] = biological target: Adenosine receptor A1 (Homo sapiens) (UniProt P30542); assay: Inhibition of ADORA1 (unknown origin)
Chain of Adenosine receptor A1 (Homo sapiens) (P30542 whole entry): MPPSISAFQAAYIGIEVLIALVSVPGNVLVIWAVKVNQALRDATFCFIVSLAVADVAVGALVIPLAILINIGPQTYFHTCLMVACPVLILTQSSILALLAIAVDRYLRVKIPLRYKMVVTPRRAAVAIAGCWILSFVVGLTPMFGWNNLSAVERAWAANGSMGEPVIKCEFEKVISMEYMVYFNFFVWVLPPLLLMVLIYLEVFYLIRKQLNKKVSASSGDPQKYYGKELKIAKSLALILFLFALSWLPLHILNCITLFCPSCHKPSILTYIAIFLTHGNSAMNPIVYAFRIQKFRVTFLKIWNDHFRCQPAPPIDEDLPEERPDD

[25] = biological target: Endothelin-1 receptor (Homo sapiens) (UniProt P25101); assay: Inhibition of ETA (unknown origin)
Chain of Endothelin-1 receptor (Homo sapiens) (P25101 whole entry): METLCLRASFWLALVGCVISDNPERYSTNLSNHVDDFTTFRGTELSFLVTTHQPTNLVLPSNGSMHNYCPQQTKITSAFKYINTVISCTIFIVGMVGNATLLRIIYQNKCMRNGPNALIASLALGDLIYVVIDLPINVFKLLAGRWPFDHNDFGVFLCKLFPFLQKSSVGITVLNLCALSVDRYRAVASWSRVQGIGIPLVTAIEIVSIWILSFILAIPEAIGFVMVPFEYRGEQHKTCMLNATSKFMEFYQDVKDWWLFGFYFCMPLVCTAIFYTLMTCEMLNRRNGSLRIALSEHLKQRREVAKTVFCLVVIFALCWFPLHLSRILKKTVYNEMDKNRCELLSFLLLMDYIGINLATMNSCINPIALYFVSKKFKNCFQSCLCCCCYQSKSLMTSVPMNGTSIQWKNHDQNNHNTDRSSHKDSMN

[26] = biological target: Mu-type opioid receptor (Homo sapiens) (UniProt P35372); assay: Inhibition of MOP (unknown origin)
Cytochrome P450 2D6 = Cytochrome P450 2D6 (Homo sapiens, UniProt P10635); assay: Inhibition of CYP2D6 (unknown origin); format: ADME
[27] = biological target: Tyrosine-protein kinase Lck (Homo sapiens) (UniProt P06239); assay: Inhibition of LCK (unknown origin)
[28] = Clearance in rat hepatocytes assessed per 10^6 cells; format: ADME, cell-based, Hepatocyte; details: read-out: CLH
[29] = biological target: Sodium channel protein type 5 subunit alpha (Homo sapiens, UniProt Q14524); assay: Inhibition of NaV1.5 (unknown origin)
Chain of Sodium channel protein type 5 subunit alpha (Q14524 whole entry): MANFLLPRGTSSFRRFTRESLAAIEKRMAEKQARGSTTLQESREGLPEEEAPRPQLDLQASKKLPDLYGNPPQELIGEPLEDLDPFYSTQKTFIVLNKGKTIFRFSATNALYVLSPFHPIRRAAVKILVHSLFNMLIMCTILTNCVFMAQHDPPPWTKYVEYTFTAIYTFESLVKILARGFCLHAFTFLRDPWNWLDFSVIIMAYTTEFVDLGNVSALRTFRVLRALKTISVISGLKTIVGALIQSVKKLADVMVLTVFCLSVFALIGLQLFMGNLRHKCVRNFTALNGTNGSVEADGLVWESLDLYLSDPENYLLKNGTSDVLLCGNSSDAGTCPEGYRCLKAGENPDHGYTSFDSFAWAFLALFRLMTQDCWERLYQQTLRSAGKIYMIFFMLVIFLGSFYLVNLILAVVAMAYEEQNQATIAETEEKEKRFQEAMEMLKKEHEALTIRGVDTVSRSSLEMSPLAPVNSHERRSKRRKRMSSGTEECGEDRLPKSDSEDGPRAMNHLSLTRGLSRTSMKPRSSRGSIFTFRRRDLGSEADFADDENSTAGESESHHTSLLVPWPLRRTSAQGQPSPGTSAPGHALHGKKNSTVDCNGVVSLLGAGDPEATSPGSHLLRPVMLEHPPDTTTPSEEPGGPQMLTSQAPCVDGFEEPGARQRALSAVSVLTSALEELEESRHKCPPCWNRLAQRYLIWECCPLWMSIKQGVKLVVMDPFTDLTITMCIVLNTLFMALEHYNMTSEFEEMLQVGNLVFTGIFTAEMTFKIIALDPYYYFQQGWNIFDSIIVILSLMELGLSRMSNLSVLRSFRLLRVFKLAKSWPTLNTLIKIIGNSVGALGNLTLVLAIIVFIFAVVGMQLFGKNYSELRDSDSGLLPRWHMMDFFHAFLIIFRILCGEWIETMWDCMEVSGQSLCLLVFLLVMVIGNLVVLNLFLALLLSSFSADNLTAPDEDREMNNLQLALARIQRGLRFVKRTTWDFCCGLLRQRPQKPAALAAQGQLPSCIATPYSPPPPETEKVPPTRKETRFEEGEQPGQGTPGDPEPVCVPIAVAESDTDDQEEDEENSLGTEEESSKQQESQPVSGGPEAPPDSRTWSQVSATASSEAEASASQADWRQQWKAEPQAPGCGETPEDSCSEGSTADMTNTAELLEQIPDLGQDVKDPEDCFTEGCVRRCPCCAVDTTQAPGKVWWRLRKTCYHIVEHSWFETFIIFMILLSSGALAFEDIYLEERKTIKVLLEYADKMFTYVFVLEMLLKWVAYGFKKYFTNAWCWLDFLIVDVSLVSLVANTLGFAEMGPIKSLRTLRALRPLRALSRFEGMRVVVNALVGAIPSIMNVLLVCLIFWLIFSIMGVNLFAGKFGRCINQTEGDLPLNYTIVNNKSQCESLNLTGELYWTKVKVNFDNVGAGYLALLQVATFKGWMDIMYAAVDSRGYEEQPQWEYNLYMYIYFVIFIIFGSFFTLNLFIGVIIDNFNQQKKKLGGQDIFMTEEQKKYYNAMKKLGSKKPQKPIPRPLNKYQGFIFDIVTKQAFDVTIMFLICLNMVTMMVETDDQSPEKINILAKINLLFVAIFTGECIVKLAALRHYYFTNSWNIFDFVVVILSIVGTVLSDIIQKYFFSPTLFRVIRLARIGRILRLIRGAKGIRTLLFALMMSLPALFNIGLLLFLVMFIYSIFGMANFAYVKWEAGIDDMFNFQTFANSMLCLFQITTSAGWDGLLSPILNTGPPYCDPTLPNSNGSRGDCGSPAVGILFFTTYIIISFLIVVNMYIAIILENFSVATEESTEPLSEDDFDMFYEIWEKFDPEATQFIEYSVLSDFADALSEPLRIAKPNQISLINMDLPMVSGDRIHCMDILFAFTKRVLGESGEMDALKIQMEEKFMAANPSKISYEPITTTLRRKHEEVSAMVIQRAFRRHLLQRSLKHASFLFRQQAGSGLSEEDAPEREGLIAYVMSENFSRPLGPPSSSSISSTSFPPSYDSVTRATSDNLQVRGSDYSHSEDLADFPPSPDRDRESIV

[30] = biological target: Voltage-gated L-type calcium channel (Homo sapiens, UniProt Q13936+Q13698+Q01668+O60840); assay: Inhibition of L type calcium channel (unknown origin); format: protein assay
[31] = biological target: Na(+)/citrate cotransporter (Mus musculus, UniProt Q67BT3); assay: Inhibition of NaCT in mouse hepatocytes assessed as [14C]-citrate uptake after 30 mins by scintillation counting method; format: cell-based, Hepatocyte
[32] = biological target: Tyrosine-protein kinase ABL1 (Homo sapiens) (UniProt P00519); assay: Inhibition of ABL1 (unknown origin)
[33] = biological target: Na(+)/citrate cotransporter (Rattus norvegicus, UniProt Q8CJ44); assay: Inhibition of NaCT in rat hepatocytes assessed as [14C]-citrate uptake after 30 mins by scintillation counting method; format: cell-based, Hepatocyte
Mus musculus [34] = assay: Effect on glucose infusion rate in DIO C57/B6 mouse during hyperinsulinemic-euglycemic clamp at 44 mg/kg/hr for 90 mins; format: functional, organism-based
[35] = biological target: Na(+)/dicarboxylate cotransporter 3 (Homo sapiens, UniProt Q8WWT9); assay: Inhibition of NaDC3 (unknown origin) expressed in HEK293 cells assessed as inhibition of [14C]citrate uptake by microbeta plate reader analysis; format: cell-based
Chain of Na(+)/dicarboxylate cotransporter 3 (Q8WWT9 whole entry): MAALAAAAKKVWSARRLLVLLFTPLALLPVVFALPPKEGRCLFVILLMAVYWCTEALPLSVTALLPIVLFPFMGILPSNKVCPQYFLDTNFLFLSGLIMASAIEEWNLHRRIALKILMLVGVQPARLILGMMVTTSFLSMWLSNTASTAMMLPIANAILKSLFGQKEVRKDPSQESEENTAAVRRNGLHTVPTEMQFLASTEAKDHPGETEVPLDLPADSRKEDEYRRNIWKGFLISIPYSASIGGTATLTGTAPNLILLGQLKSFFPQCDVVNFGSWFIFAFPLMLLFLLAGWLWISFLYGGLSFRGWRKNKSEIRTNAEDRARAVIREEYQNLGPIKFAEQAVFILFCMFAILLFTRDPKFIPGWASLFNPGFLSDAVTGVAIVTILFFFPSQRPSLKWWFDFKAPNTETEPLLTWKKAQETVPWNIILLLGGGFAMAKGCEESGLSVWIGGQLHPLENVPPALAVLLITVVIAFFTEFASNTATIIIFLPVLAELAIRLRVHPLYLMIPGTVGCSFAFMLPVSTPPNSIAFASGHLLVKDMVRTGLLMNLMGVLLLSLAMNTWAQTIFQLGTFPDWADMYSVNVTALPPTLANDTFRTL

With `COc1ncc(C)cc1CC[C@@](O)(CC(=O)O)C(=O)O` the inhibition [1] was “inactive”, the inhibition [2] was “inactive” and the inhibition [3] was “inactive”. For the same molecule, the AUC(0-t) [4] was 4890 ng·h/mL, the inhibition [5] was “inactive” and the “inhibition (INH)” value (Bile salt export pump) was “Not Active”. The inhibition [6] was “inactive”, the inhibition [7] was “inactive” and the inhibition (Mus musculus [8]) was “Active”. The IC50 (Rattus norvegicus [9]) was 1 µM, the inhibition [10] was “inactive” and the clearance [11] was 15.8 mL/min/kg. For the same molecule, the Papp [12] was 0.3 ×10⁻⁶ cm/s, the inhibition [13] was “inactive” and the inhibition [14] was “inactive”. The inhibition [15] was “inactive”, the inhibition [16] was “inactive” and the IC50 [17] was 0.74 µM. For the same molecule, the Activity (Rattus norvegicus [18]) was “Active”, the inhibition [19] was “inactive” and the hepatocyte CLint [20] was 7 µL/min/1e6 cells. The inhibition [21] was “inactive”, the “inhibition (INH)” value (Cytochrome P450 2C8) was “Not Active” and the inhibition [22] was “inactive”. The “inhibition (INH)” value (Cytochrome P450 2C9) was “Not Active”, the IC50 ([23]; read-out: IC50) was 13.2 µM and the IC50 ([23]; read-out: pIC50 (converted)) was 10 µM. For the same molecule, the inhibition [24] was “inactive”, the inhibition [25] was “inactive” and the inhibition [26] was “inactive”. The “inhibition (INH)” value (Cytochrome P450 2D6) was “Not Active”, the inhibition [27] was “inactive” and the hepatocyte CLint [28] was less than 6 µL/min/1e6 cells. The “inhibition (INH)” value [29] was “Not Active”, the “inhibition (INH)” value [30] was “Not Active” and the IC50 [31] was 0.21 µM. The inhibition [32] was “inactive”, the IC50 [33] was 0.12 µM and the Activity (Mus musculus [34]) was “inactive”. The IC50 ([35]; read-out: IC50) was 14.1 µM and the IC50 ([35]; read-out: pIC50 (converted)) was 10 µM.
